In patent US20070128217A1 (priority 2003, published 2007):

What was measured:
[1] = test system: recombinant human anti-SARS-CoV antibody 03-018; type: binding; set-up: Binding of antibody 03-018 to linear peptides of the N protein of SARS-CoV Urbani / Binding of antibody 03-018 to looped/cyclic peptides of the N protein of SARS-CoV Urbani: unit not given here
[2] = test system: rabbit serum obtained by immunizing a rabbit with the SARS-CoV strain Frankfurt 1; type: binding; set-up: Binding of a rabbit serum to linear peptides / Binding of a rabbit serum to looped peptides / Rabbit serum linear peptides / Rabbit serum looped peptides / Binding of a rabbit serum to linear peptides of protein N of SARS-CoV Urbani (Rabbit serum linear peptides) / Binding of a rabbit serum to looped/cyclic peptides of protein N of SARS-CoV Urbani (Rabbit serum looped peptides): unit not given here
[3] = test system: antibodies in sera from SARS patients (sera 1a, 1b, 2, 6, 37, 62, London, SARS-yellow, SARS-green); type: binding, human; set-up: Binding of serum 6 to linear peptides of protein X1 of SARS-CoV Urbani / Binding of serum 37 to linear peptides of protein X1 of SARS-CoV Urbani / Binding of serum 6 to looped/cyclic peptide (PEPSCAN-ELISA) / Binding of serum 37 to looped/cyclic peptide (PEPSCAN-ELISA) / Binding of serum 37 to looped/cyclic peptides of protein X1 of SARS-CoV Urbani / Binding of serum 6 to linear peptides of protein X2 / Binding of serum 37 to linear peptides of protein X2 / Binding of serum 37 to looped/cyclic peptides of protein X2 of SARS-CoV Urbani / Binding of serum 6 to linear peptides of protein M of SARS-CoV Urbani / Binding of serum 37 to linear peptides of protein M of SARS-CoV Urbani / Binding of serum 6 to looped/cyclic peptides of protein M of SARS-CoV Urbani / Binding of serum 37 to looped/cyclic peptides of protein M of SARS-CoV Urbani / Binding of serum 6 to linear peptides of protein X3 of SARS-CoV Urbani / Binding of serum 37 to linear peptides of protein X3 of SARS-CoV Urbani / Binding of serum 37 to looped/cyclic peptides of protein X3 of SARS-CoV Urbani / Binding of serum 6 to linear peptides of protein X4 of SARS-CoV Urbani / Binding of serum 37 to linear peptides of protein X4 of SARS-CoV Urbani / Binding of serum 37 to looped/cyclic peptides of protein X4 of SARS-CoV Urbani / Binding of serum 6 to linear peptides of protein X5 of SARS-CoV Urbani / Binding of serum 37 to linear peptides of protein X5 of SARS-CoV Urbani / Binding of serum 37 to looped/cyclic peptides of protein X5 of SARS-CoV Urbani / Binding of serum 6 to linear peptides of protein N of SARS-CoV Urbani / Binding of serum 37 to linear peptides of protein N of SARS-CoV Urbani / Binding of serum 6 to linear peptide (PEPSCAN-ELISA) / Binding of serum 1a to looped/cyclic peptides of protein N of SARS-CoV Urbani / Binding of serum 1b to looped/cyclic peptides of protein N of SARS-CoV Urbani / Binding of serum 2 to looped/cyclic peptides of protein N of SARS-CoV Urbani / Binding of serum 6 to looped/cyclic peptides of protein N of SARS-CoV Urbani / Binding of serum 37 to looped/cyclic peptides of protein N of SARS-CoV Urbani / Binding of serum 62 to looped/cyclic peptides of protein N of SARS-CoV Urbani / Binding of serum London to looped/cyclic peptides of protein N of SARS-CoV Urbani / Binding of serum SARS-green to looped/cyclic peptides of protein N of SARS-CoV Urbani: unit not given here
[4] = test system: control sera (pooled serum of ten healthy LUMC hospital workers; commercial negative donor pooled serum from the Dutch bloodbank); type: binding, human; set-up: Binding of Control serum LUMC to linear peptides / Binding of Control serum Blood-bank to linear peptides / Binding of Control serum LUMC to looped peptides / Binding of Control Serum Blood-Bank to Looped peptides / Binding of Control serum LUMC to linear peptides of the protein M of SARS-CoV Urbani / Binding of Control serum Blood-bank to linear peptides of the protein M of SARS-CoV Urbani / Binding of Control serum LUMC to looped peptides of the protein M of SARS-CoV Urbani / Binding of Control Serum Blood-Bank to Looped peptides of the protein M of SARS-CoV Urbani: unit not given here

| Sequence | Binding of antibody 03-018 to linear peptides of the N protein of SARS-CoV Urbani [1] | Binding of antibody 03-018 to looped/cyclic peptides of the N protein of SARS-CoV Urbani [1] | Binding of a rabbit serum to linear peptides of protein N of SARS-CoV Urbani (Rabbit serum linear peptides) [2] | Binding of a rabbit serum to looped/cyclic peptides of protein N of SARS-CoV Urbani (Rabbit serum looped peptides) [2] | Binding of serum 1a to linear peptides of protein N of SARS-CoV Urbani [3] | Binding of serum 1a to looped/cyclic peptides of protein N of SARS-CoV Urbani [3] | Binding of serum 1b to linear peptides of protein N of SARS-CoV Urbani [3] | Binding of serum 1b to looped/cyclic peptides of protein N of SARS-CoV Urbani [3] | Binding of serum 2 to linear peptides of protein N of SARS-CoV Urbani [3] | Binding of serum 2 to looped/cyclic peptides of protein N of SARS-CoV Urbani [3] | Binding of serum 6 to linear peptides of protein N of SARS-CoV Urbani [3] | Binding of serum 6 to looped/cyclic peptides of protein N of SARS-CoV Urbani [3] | Binding of serum 37 to linear peptides of protein N of SARS-CoV Urbani [3] | Binding of serum 37 to looped/cyclic peptides of protein N of SARS-CoV Urbani [3] | Binding of serum 62 to linear peptides of protein N of SARS-CoV Urbani [3] | Binding of serum 62 to looped/cyclic peptides of protein N of SARS-CoV Urbani [3] | Binding of serum London to linear peptides of protein N of SARS-CoV Urbani [3] | Binding of serum London to looped/cyclic peptides of protein N of SARS-CoV Urbani [3] | Binding of serum SARS-green to looped/cyclic peptides of protein N of SARS-CoV Urbani [3] | Binding of serum SARS-yellow to looped/cyclic peptides of protein N of SARS-CoV Urbani [3] | further results |
| --- | --- | --- | --- | --- | --- | --- | --- | --- | --- | --- | --- | --- | --- | --- | --- | --- | --- | --- | --- | --- | --- |
| AIKLDDKDPQFKDNV | 0.1 | 0.2 | 0.1 | 0.3 | 0.2 | 0.3 | 0.1 | 0.2 | 0.2 | 0.3 | 0.2 | 0.2 | 0.8 | 0.5 | 0.9 | 0.4 | 0.6 | 0.4 | 0.4 | 0.2 | Binding of serum SARS-green to linear peptides of protein N of SARS-CoV Urbani [3]: 0.7; Binding of serum SARS-yellow to linear peptides of protein N of SARS-CoV Urbani [3]: 0.6; Control Serum Blood-Bank Looped peptides [4]: 0.5; Control serum Blood-bank linear peptides [4]: 0.7; Control serum LUMC linear peptides [4]: 0.8; Control serum LUMC looped peptides [4]: 0.5 |
| ALLLLDRLNQLESKV | 0.1 | 0.3 | 0.1 | 0.4 | – | 0.4 | – | 0.3 | – | 0.5 | – | 0.3 | – | 1.0 | – | 0.9 | – | 0.5 | 0.7 | 0.5 | Binding of serum 1a to linear peptide (PEPSCAN-ELISA) [3]: 0.2; Binding of serum 1b to linear peptide (PEPSCAN-ELISA) [3]: 0.1; Binding of serum 2 to linear peptide (PEPSCAN-ELISA) [3]: 0.2; Binding of serum 6 to linear peptide (PEPSCAN-ELISA) [3]: 0.1; Binding of serum 37 to linear peptide (PEPSCAN-ELISA) [3]: 0.7; Binding of serum 62 to linear peptide (PEPSCAN-ELISA) [3]: 0.4; Binding of serum London to linear peptide (PEPSCAN-ELISA) [3]: 0.6; Binding of serum SARS-green to linear peptide (PEPSCAN-ELISA) [3]: 0.2; Binding of serum SARS-yellow to linear peptide (PEPSCAN-ELISA) [3]: 0.5; Binding of Control Serum Blood-Bank to Looped peptides [4]: 0.8; Binding of Control serum Blood-bank to linear peptides [4]: 0.8; Binding of Control serum LUMC to linear peptides [4]: 0.7; Binding of Control serum LUMC to looped peptides [4]: 0.8 |
| ALNTPKDHIGTRNPN | 0.1 | 0.2 | 0.2 | 0.2 | 0.3 | 0.4 | 0.1 | 0.3 | 0.3 | 0.5 | 0.2 | 0.3 | 0.7 | 0.5 | 0.6 | 0.5 | 0.5 | 0.3 | 0.5 | 0.0 | Binding of serum SARS-green to linear peptides of protein N of SARS-CoV Urbani [3]: 0.4; Binding of serum SARS-yellow to linear peptides of protein N of SARS-CoV Urbani [3]: 0.5; Binding of Control Serum Blood-Bank to Looped peptides [4]: 0.5; Binding of Control serum Blood-bank to linear peptides [4]: 0.8; Binding of Control serum LUMC to linear peptides [4]: 0.6; Binding of Control serum LUMC to looped peptides [4]: 0.4 |
| ALTQHGKEELRFPRG | 0.2 | 0.2 | 0.2 | 0.3 | 0.3 | 0.2 | 0.2 | 0.1 | 0.3 | 0.2 | 0.2 | 0.1 | 0.9 | 0.5 | 0.8 | 0.2 | 0.5 | 0.3 | 0.1 | 0.3 | Binding of serum SARS-green to linear peptides of protein N of SARS-CoV Urbani [3]: 0.6; Binding of serum SARS-yellow to linear peptides of protein N of SARS-CoV Urbani [3]: 0.6; Binding of Control Serum Blood-Bank to Looped peptides [4]: 0.4; Binding of Control serum Blood-bank to linear peptides [4]: 0.9; Binding of Control serum LUMC to linear peptides [4]: 0.7; Binding of Control serum LUMC to looped peptides [4]: 0.4 |
